Data as given in US20250002450A1, “CATIONIC STEROID COMPOUNDS, METHOD OF OBTAINING THEREOF, FORMULATIONS COMPRISING THEREOF AND THEIR USES” (UNIVERSIDADE DO PORTO, priority 2021, published 2025).

Legend:
C. jejuni P5/4 = test: Kirby-Bauer disk diffusion; assay type: cell-based, Campylobacter jejuni; conditions: 15 μg per disk
Procedure: An initial screening of the antibacterial activity of the compounds was performed by the Kirby-Bauer disk diffusion method, as recommended by the Clinical and Laboratory Standards Institute (CLSI). Briefly, sterile 6 mm blank paper disks (Oxoid, Basingstoke, England) impregnated with 15 μg of each compound were placed on inoculated MH agar plates. A blank disk with dimethylsulfoxide (DMSO) was used as a negative control. MH inoculated plates were incubated for 18-20 h at 37 degrees C. At the end of incubation, the inhibition halos where measured. The MIC was used to determine the antibacterial activity of each compound, in accordance with the recommendations of the CLSI. Two-fold serial dilutions of the compounds were prepared in Mueller-Hinton Broth 2 (MHB2—Sigma-Aldrich, St. Louis, MO, USA) within the concentration range of 0.062-64 μg/mL. CTX ranging between 0.031-16 μg/mL was used as a control. Sterility and growth controls were included in each assay. Purity checks and colony counts of the inoculum suspensions were also performed in order to ensure that the final inoculum density closely approximates the intended number (5×10^5 CFU/mL). The MIC was determined as the lowest concentration of compound that inhibited growth of the bacteria. The MBC was assessed by spreading 10 μL of culture collected from wells showing no visible growth on MH agar plates. […]

[1] = system: Saprolegnia parasitica CBS 223.65; test: MIC/MLC broth microdilution in GY broth; assay type: cell-based
Procedure: (§1) The antifungal activity of compound 1 was evaluated for a wide range of fungal species, covering yeasts and filamentous fungi, including dermatophytes. […] This antimicrobial effect was fungicidal, with minimal lethal concentrations (MLC) being equal to, or one or two-fold higher than the respective MIC. Twenty-three fungal strains were used in this study, including reference strains and clinical isolates of yeasts and filamentous fungi. Yeast strains included reference strains (ATCC—American Type Culture Collection and CECT—Colección Española de Cultivos Tipo) and clinical isolates: C. albicans ATCC 10231, Candida krusei ATCC 6258, C. albicans H37, C. albicans FF172, C. albicans FF176, C. albicans DSY294, C. albicans DSY296, C. glabrata DSY562, C. glabrata DSY565 and Cryptococcus neoformans CECT 1078. […]
Each well was then inoculated with approximately 1 mm^2 of mycelium. […] After 5-7 days of incubation at 24° C., MIC was recorded as the lowest concentration that prevented obvious mycelial growth in comparison to the compound-free controls. […]

[2] = system: yeasts and filamentous fungi, including dermatophytes; test: Antifungal activity, whole strain panel; assay type: cell-based; conditions: all microorganisms tested (Table 2)
Procedure: as §1
Antifungal activity was evaluated by determining the MIC of compound 1 by the broth microdilution method, according to CLSI guidelines (reference documents M27-A3 for yeasts and M38-A2 for filamentous fungi). […] The minimal lethal concentration (MLC) was determined by spreading 20 μL of culture collected from wells showing no visible growth on SDA plates. The MLC was determined as the lowest concentration showing complete growth inhibition after 48 h at 35 degrees C., 48 h at 25 degrees C. […]

`C[C@H](CCC(=O)NCCN)[C@H]1CC[C@H]2[C@@H]3CC[C@@H]4C[C@H](O)CC[C@]4(C)[C@H]3C[C@H](O)[C@]12C` [Compound 1, (R)—N-(2-aminoethyl)-4-((3R,5R,8R,9S,10S,12S,13R,14S,17R)-3,12-dihydroxy-10,13-dimethylhexadecahydro-1H-cyclopenta[a]phenanthren-17-yl) pentanamida] showed a Disk diffusion (C. jejuni P5/4) of 8 mm, an MIC [1] of 32 to 64 mg/L and an MLC [1] of 32 to 64 mg/L. The “spectrum of antifungal activity (in words)” value [2] was “active against all microorganisms tested”.
